Measured values as given in PubChem BioAssay (NCI).
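Following 48 hours of exposure in 96-well plates, responses at five concentrations were used to interpolate endpoints linearly. The concentration for 50% growth inhibition is given as GI50. TGI: total growth inhibition.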

Experiments:
Assay in all cases: NCI anticancer screen, dose series, 48 h
UO-31 renal = system: UO-31 renal
SK-MEL-28 melanoma = system: SK-MEL-28 melanoma
SF-268 CNS = system: SF-268 CNS
786-0 renal = system: 786-0 renal
U251 CNS = system: U251 CNS
SK-MEL-5 melanoma = system: SK-MEL-5 melanoma
OVCAR-4 ovarian = system: OVCAR-4 ovarian
HOP-92 NSCLC = system: HOP-92 NSCLC
SW-620 colon = system: SW-620 colon
RXF 393 renal = system: RXF 393 renal
MOLT-4 leukemia = system: MOLT-4 leukemia
UACC-257 melanoma = system: UACC-257 melanoma
SNB-75 CNS = system: SNB-75 CNS
KM20L2 colon = system: KM20L2 colon
DMS 273 small cell lung = system: DMS 273 small cell lung
NCI-H23 lung = system: NCI-H23 lung
LOX IMVI melanoma = system: LOX IMVI melanoma
HCT-15 colon = system: HCT-15 colon
NCI-H460 lung = system: NCI-H460 lung
CAKI-1 renal = system: CAKI-1 renal
NCI-H226 lung = system: NCI-H226 lung
HOP-62 NSCLC = system: HOP-62 NSCLC
SNB-19 CNS = system: SNB-19 CNS
NCI-H522 lung = system: NCI-H522 lung
IGROV1 ovarian = system: IGROV1 ovarian
K-562 leukemia = system: K-562 leukemia
HCT-116 colon = system: HCT-116 colon
M14 melanoma = system: M14 melanoma
OVCAR-8 ovarian = system: OVCAR-8 ovarian
DLD-1 colon = system: DLD-1 colon
HOP-18 NSCLC = system: HOP-18 NSCLC
OVCAR-3 ovarian = system: OVCAR-3 ovarian
SK-OV-3 ovarian = system: SK-OV-3 ovarian
COLO 205 colon = system: COLO 205 colon
LXFL 529 NSCLC = system: LXFL 529 NSCLC
A498 renal = system: A498 renal
ACHN renal = system: ACHN renal
HT29 colon = system: HT29 colon
TK-10 renal = system: TK-10 renal
HCC-2998 colon = system: HCC-2998 colon
HL-60(TB) leukemia = system: HL-60(TB) leukemia
SK-MEL-2 melanoma = system: SK-MEL-2 melanoma
SN12C renal = system: SN12C renal
RPMI-8226 leukemia = system: RPMI-8226 leukemia
UACC-62 melanoma = system: UACC-62 melanoma
KM12 colon = system: KM12 colon
MALME-3M melanoma = system: MALME-3M melanoma
SF-539 CNS = system: SF-539 CNS
CCRF-CEM leukemia = system: CCRF-CEM leukemia
A549 NSCLC = system: A549 NSCLC
SF-295 CNS = system: SF-295 CNS

Work on `C1C[OH+]CCNCC[OH+]CC[OH+]CCN1.N.[Cl-].[Pt+4]` yielded a GI50 (UO-31 renal) of 20.5 µM, a TGI (UO-31 renal) of 80 µM and a GI50 (SK-MEL-28 melanoma) of 49.5 µM. The TGI (SK-MEL-28 melanoma) was > 100 µM, the GI50 (SF-268 CNS) was > 100 µM and the TGI (SF-268 CNS) was > 100 µM. The GI50 (786-0 renal) was > 100 µM, the TGI (786-0 renal) was > 100 µM and the GI50 (U251 CNS) was > 100 µM. For the same compound, the TGI (U251 CNS) was > 100 µM, the GI50 (SK-MEL-5 melanoma) was 35.5 µM and the TGI (SK-MEL-5 melanoma) was > 100 µM. The GI50 (OVCAR-4 ovarian) was > 100 µM, the TGI (OVCAR-4 ovarian) was > 100 µM and the GI50 (HOP-92 NSCLC) was 35.8 µM. The TGI (HOP-92 NSCLC) was > 100 µM, the GI50 (SW-620 colon) was 67.7 µM and the TGI (SW-620 colon) was > 100 µM. It also gave a GI50 (RXF 393 renal) of 22.8 µM, a TGI (RXF 393 renal) of 90.3 µM and a GI50 (MOLT-4 leukemia) of 59.8 µM. For the same compound, the TGI (MOLT-4 leukemia) was > 100 µM, the GI50 (UACC-257 melanoma) was 78.8 µM and the TGI (UACC-257 melanoma) was > 100 µM. For the same compound, the GI50 (SNB-75 CNS) was 24.2 µM, the TGI (SNB-75 CNS) was > 100 µM and the GI50 (KM20L2 colon) was 22.8 µM. The TGI (KM20L2 colon) was > 100 µM, the GI50 (DMS 273 small cell lung) was 28.7 µM and the TGI (DMS 273 small cell lung) was > 100 µM. For the same compound, the GI50 (NCI-H23 lung) was 27.1 µM, the TGI (NCI-H23 lung) was > 100 µM and the GI50 (LOX IMVI melanoma) was 33.2 µM. For the same compound, the TGI (LOX IMVI melanoma) was > 100 µM, the GI50 (HCT-15 colon) was 40.4 µM and the TGI (HCT-15 colon) was > 100 µM. The GI50 (NCI-H460 lung) was 93 µM, the TGI (NCI-H460 lung) was > 100 µM and the GI50 (CAKI-1 renal) was 29 µM. The TGI (CAKI-1 renal) was > 100 µM, the GI50 (NCI-H226 lung) was 38.2 µM and the TGI (NCI-H226 lung) was > 100 µM. The GI50 (HOP-62 NSCLC) was > 100 µM, the TGI (HOP-62 NSCLC) was > 100 µM and the GI50 (SNB-19 CNS) was > 100 µM. The TGI (SNB-19 CNS) was > 100 µM, the GI50 (NCI-H522 lung) was 14.2 µM and the TGI (NCI-H522 lung) was 48.7 µM. The GI50 (IGROV1 ovarian) was 49.6 µM, the TGI (IGROV1 ovarian) was > 100 µM and the GI50 (K-562 leukemia) was 41.5 µM. The TGI (K-562 leukemia) was > 100 µM, the GI50 (HCT-116 colon) was 32.9 µM and the TGI (HCT-116 colon) was > 100 µM. The GI50 (M14 melanoma) was 54.2 µM, the TGI (M14 melanoma) was > 100 µM and the GI50 (OVCAR-8 ovarian) was 18.8 µM. For the same compound, the TGI (OVCAR-8 ovarian) was > 100 µM, the GI50 (DLD-1 colon) was 46.1 µM and the TGI (DLD-1 colon) was > 100 µM. For the same compound, the GI50 (HOP-18 NSCLC) was 37.5 µM, the TGI (HOP-18 NSCLC) was > 100 µM and the GI50 (OVCAR-3 ovarian) was 89.1 µM. The TGI (OVCAR-3 ovarian) was > 100 µM, the GI50 (SK-OV-3 ovarian) was 25.1 µM and the TGI (SK-OV-3 ovarian) was 96 µM. The GI50 (COLO 205 colon) was 18.9 µM, the TGI (COLO 205 colon) was 47.7 µM and the GI50 (LXFL 529 NSCLC) was > 100 µM. The TGI (LXFL 529 NSCLC) was > 100 µM, the GI50 (A498 renal) was 64.6 µM and the TGI (A498 renal) was > 100 µM. For the same compound, the GI50 (ACHN renal) was 42 µM, the TGI (ACHN renal) was > 100 µM and the GI50 (HT29 colon) was 43.7 µM. For the same compound, the TGI (HT29 colon) was > 100 µM, the GI50 (TK-10 renal) was 49.5 µM and the TGI (TK-10 renal) was > 100 µM. The GI50 (HCC-2998 colon) was 54.1 µM, the TGI (HCC-2998 colon) was > 100 µM and the GI50 (HL-60(TB) leukemia) was > 100 µM. The TGI (HL-60(TB) leukemia) was > 100 µM, the GI50 (SK-MEL-2 melanoma) was 47.2 µM and the TGI (SK-MEL-2 melanoma) was > 100 µM. The GI50 (SN12C renal) was > 100 µM, the TGI (SN12C renal) was > 100 µM and the GI50 (RPMI-8226 leukemia) was 27.5 µM. For the same compound, the TGI (RPMI-8226 leukemia) was > 100 µM, the GI50 (UACC-62 melanoma) was 31.6 µM and the TGI (UACC-62 melanoma) was > 100 µM. For the same compound, the GI50 (KM12 colon) was 29.5 µM, the TGI (KM12 colon) was > 100 µM and the GI50 (MALME-3M melanoma) was > 100 µM. The TGI (MALME-3M melanoma) was > 100 µM, the GI50 (SF-539 CNS) was > 100 µM and the TGI (SF-539 CNS) was > 100 µM. The GI50 (CCRF-CEM leukemia) was 53.6 µM, the TGI (CCRF-CEM leukemia) was > 100 µM and the GI50 (A549 NSCLC) was 51.3 µM. For the same compound, the TGI (A549 NSCLC) was > 100 µM, the GI50 (SF-295 CNS) was 49 µM and the TGI (SF-295 CNS) was > 100 µM.
